Data: US20170028005A1, “NATURAL SWEETENER” (NATGOOD IP, LLC, priority 2014, published 2017)

Tests used:
The Caramelization Test = assay type: physicochemical; conditions: 1 cup sweetener with 1/2 cup water until it browns
Excerpt: 1 cup of caramelized sugar or 1 cup of sweetener is mixed with ½ cup of water and swirled to mix until it browns. A sweetener is considered to pass the test and be enough like sugar when it browns within 25% of the time when the sugar browns.

blood glucose response [1] = assay: A Glycemic Response Test; assay type: in vivo; conditions: 30 grams in water after fast; blood glucose every 15 minutes for 90 minutes
Protocol: Under an Institutional Review Board approved, controlled clinical trial, subjects undergo a pre-test fast for at least 20 hours and then consume 30 grams of glucose, or an equal amount of sweetener in water. Blood glucose measurements are then made every 15 minutes for 90 minutes and the blood glucose response is recorded. A sweetener is considered to pass the test when then blood glucose response is less than 5% of glucose.

blood glucose response [2] = assay: A Repression Test; assay type: in vivo; set-up: key: PASS: pass the repression test when then blood glucose response is much lower than expected for the combination of; conditions: product (e.g. cupcake) with other nutritive carbohydrates
Protocol: Under controlled study scenario subjects fast, then consume a product (e.g. a cupcake) that contains other nutritive carbohydrates and the glycemic response is assessed by established methods. The glycemic response to the nutritive carbohydrates is compared to the glycemic response to the nutritive carbohydrates in the presence of the sweetener or sugar.

blood glucose level [3] = conditions: values used for the expected GI; cited from earlier work
blood glucose level [4] = assay: Glycemic index (GI) of NSC formulations (Example 2); assay type: in vivo, human
Protocol: Glycemic index can be measured by any suitable methodology. For example, to determine a food's GI value, measured portions of the food containing 50 grams of available carbohydrate (or 25 grams of available carbohydrate for foods that contain lower amounts of carbohydrate) may be fed to 10 healthy people after an overnight fast. Finger-prick blood samples can be taken at 15-30 minute intervals over the next two hours. These blood samples can be used to construct a blood sugar response curve for the two hour period. The incremental area under the curve (iAUC) is calculated to reflect the total rise in blood glucose levels after eating the test food. The GI value is calculated by dividing the iAUC for the test food by the iAUC for the reference food (same amount of glucose) and multiplying by 100. The average of the GI ratings from all ten subjects is designated as the GI for that food. […] The effect on the GI response for different NSC formulations was assessed. Four formulations, designated F1-F4, containing tagatose, monkfruit, stevia extract, erythritol, xanthan gum and either maltitol or lactitol were prepared as indicated in Table 1. The glycemic index for each formulation was calculated based on the glycemic index for the individual components taking into account the weight percent of the component in the formulation. Monkfruit, xanthan gum, and stevia extract have a glycemic index of 0, erythritol has a glycemic index of 1 while tagatose has a glycemic index of 3. Maltitol has a glycemic index of 35 while lactitol has a glycemic index of 5. Fifteen subjects were evaluated and the GI calculated as described previously herein.

[5] = Acute randomized controlled trial: adverse events symptom score; assay type: in vivo, human
Protocol: An acute randomized controlled trial was carried out to investigate the effects of an NSC of the type disclosed herein on postprandial insulin, glucose and fructose responses.
Subjects (N=15) men and non-pregnant, non-lactating women, 18-75 years of age each with a BMI of 18-40 kg/m^2 inclusive and normal glycemia and (i) fasting serum glucose <126 mg/dl (<7.0 mmol/l) (or in whole blood ≦6.1 mmol/L); (ii) blood pressure <130/85; (iii) no prescription drugs within 1 month of the first study visit after screening except for the birth control pill, lipid lowering medications or small doses of anxiolytics/sedatives to assist sleeping; and (iv) no major illness or surgery requiring hospitalization within 3 months of the first study visit after screening.
The test foods consisted of 2 isovolumetric beverages: 30 g sucrose control and 30 g of sweetener blend dissolved in 500 ml water. The sucrose test meal acted as the control. Test meals were administered in a randomized order.
Adverse events reported following ingestion of the meals containing either an NSC of the type disclosed herein or sucrose included bloating, belching, nausea, diarrhea and flatulence. Each issue was scored and record for the time period indicated in Table 5 which provides the symptom score (mm) for: Bloating, Belching, Nausea, Diarrhea and Flatulence at 0 min, 120 min, before Dinner (D) and before breakfast (B).

In the case of `O=C(CO)[C@@H](O)[C@@H](O)[C@H](O)CO` [Tagatose, (3S,4S,5R)-1,3,4,5,6-pentahydroxy-hexan-2-one], the Caramelization test (The Caramelization Test) is reported as “FAIL-”, the Glycemic test (blood glucose response [1]) is reported as “PASS (pass the test when then blood glucose response is less than 5% of glucose)” and the Repression test (blood glucose response [2]) is reported as “FAIL”. For the same molecule, the “glycemic index of individual component” value (blood glucose level [3]) was 3.

In the case of `OC[C@H]1O[C@@](CO)(O[C@H]2O[C@H](CO)[C@@H](O)[C@H](O)[C@H]2O)[C@@H](O)[C@@H]1O` [Sugar, sucrose], the “Expected GI” value (blood glucose level [4]; calculated from GI of individual components and their weight percent) is reported as 65, the “Observed GI” value (blood glucose level [4]; fifteen subjects) is reported as 65 and the “Glycemic Index” value (blood glucose level [4]; sweetener ingredient of the cake mix, Table 2) is reported as 65 for sugar. For the same molecule, the Caramelization test (The Caramelization Test) was “PASS (pass the test and be enough like sugar when it browns within 25% of the time when the sugar browns)”, the Glycemic test (blood glucose response [1]) was “FAIL” and the Repression test (blood glucose response [2]) was “FAIL”. It also gave a Belching symptom score ([5]; 0 min) of 0.60 mm, a Bloating symptom score ([5]; 0 min) of 7.93 mm and a Diarrhea symptom score ([5]; 0 min) of 0.27 mm. It also gave a Flatulence symptom score ([5]; 0 min) of 1.47 mm, a Nausea symptom score ([5]; 0 min) of 0.33 mm and a Belching symptom score ([5]; 120 min) of 0.40 mm. It also gave a Bloating symptom score ([5]; 120 min) of 4.67 mm, a Diarrhea symptom score ([5]; 120 min) of 0.80 mm and a Flatulence symptom score ([5]; 120 min) of 1.40 mm. For the same molecule, the Nausea symptom score ([5]; 120 min) was 1.87 mm, the Belching symptom score ([5]; before Dinner (D)) was 1.79 mm and the Bloating symptom score ([5]; before Dinner (D)) was 5.43 mm. It also gave a Diarrhea symptom score ([5]; before Dinner (D)) of 6.93 mm, a Flatulence symptom score ([5]; before Dinner (D)) of 8.93 mm and a Nausea symptom score ([5]; before Dinner (D)) of 2.57 mm. It also gave a Belching symptom score ([5]; before breakfast (B)) of 0.57 mm, a Bloating symptom score ([5]; before breakfast (B)) of 5.71 mm and a Diarrhea symptom score ([5]; before breakfast (B)) of 5.79 mm. For the same molecule, the Flatulence symptom score ([5]; before breakfast (B)) was 7.50 mm and the Nausea symptom score ([5]; before breakfast (B)) was 0.57 mm.

In the case of `OC[C@@H](O)[C@@H](O)CO` [Erythritol, erythritol], the Glycemic test (blood glucose response [1]) is given as “PASS (pass the test when then blood glucose response is less than 5% of glucose)”, the Repression test (blood glucose response [2]) is given as “FAIL” and the “glycemic index of individual component” value (blood glucose level [3]) is given as 1.

For `OC[C@@H](O)[C@@H](O[C@H]1O[C@H](CO)[C@@H](O)[C@H](O)[C@H]1O)[C@H](O)[C@@H](O)CO` [Maltitol, maltitol], the “glycemic index of individual component” value (blood glucose level [3]) is given as 35.

For `O=C(CO)C(O)C(O)C(O)CO` (stereo not shown) [Allulose], the Glycemic test (blood glucose response [1]) was “PASS (pass the test when then blood glucose response is less than 5% of glucose)” and the Repression test (blood glucose response [2]) was “PASS”.

In the case of `OC[C@@H](O)[C@@H](O[C@@H]1O[C@H](CO)[C@H](O)[C@H](O)[C@H]1O)[C@H](O)[C@@H](O)CO` [lactitol], the “glycemic index of individual component” value (blood glucose level [3]) is listed as 5.
